Assay results: patent publication US20040259082A1

Experiments:
HIV-RT = HIV-RT (Human immunodeficiency virus type 1 group M subtype B, UniProt P03366); assay: Charged nucleobase (aminoallyl-dUTP) as polymerase substrate; assay type: biochemical; settings: dATP, dCTP, dGTP plus AA-dUTP
Method: (§1) Arrows indicate the extension products.
(§2) Charged Nucleobase as a Polymerase Substrate. […] Aminoallyl-dUTP was tested with 4 different polymerases.

Klenow = Klenow (Escherichia coli, UniProt P00582); assay: as above; assay type: biochemical; settings: dATP, dCTP, dGTP plus AA-dUTP
Method: as §1, §2

Taq = Taq (Thermus aquaticus, UniProt P19821); assay: as above; assay type: biochemical; settings: dATP, dCTP, dGTP plus AA-dUTP
Chain of Taq (P19821 whole entry): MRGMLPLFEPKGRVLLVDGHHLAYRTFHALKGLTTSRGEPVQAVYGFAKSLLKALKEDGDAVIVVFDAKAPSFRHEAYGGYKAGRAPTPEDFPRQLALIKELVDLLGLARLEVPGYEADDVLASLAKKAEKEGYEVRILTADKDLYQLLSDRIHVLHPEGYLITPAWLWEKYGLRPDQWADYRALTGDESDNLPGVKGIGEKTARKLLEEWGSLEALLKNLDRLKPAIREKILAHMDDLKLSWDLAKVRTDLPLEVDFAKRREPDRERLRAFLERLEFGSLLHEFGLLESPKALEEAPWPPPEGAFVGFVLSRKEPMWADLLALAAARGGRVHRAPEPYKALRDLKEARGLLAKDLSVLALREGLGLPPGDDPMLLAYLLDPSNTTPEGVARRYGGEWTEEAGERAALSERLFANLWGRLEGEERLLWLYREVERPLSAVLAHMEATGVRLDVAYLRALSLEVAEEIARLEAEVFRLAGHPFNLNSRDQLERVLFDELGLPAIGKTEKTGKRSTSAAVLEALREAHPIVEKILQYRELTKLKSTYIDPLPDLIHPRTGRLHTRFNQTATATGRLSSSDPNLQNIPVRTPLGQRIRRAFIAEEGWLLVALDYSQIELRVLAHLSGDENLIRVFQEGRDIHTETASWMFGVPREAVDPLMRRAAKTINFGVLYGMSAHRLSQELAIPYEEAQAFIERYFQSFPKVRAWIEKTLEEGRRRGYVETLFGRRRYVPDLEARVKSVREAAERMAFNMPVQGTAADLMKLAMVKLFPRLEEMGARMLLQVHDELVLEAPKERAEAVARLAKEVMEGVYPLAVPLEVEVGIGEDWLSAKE
Method: as §1, §2

T7 Sequenase 2.0 = T7 Sequenase 2.0 (Escherichia phage T7, UniProt P00581, DEL118-145); settings: dATP, dCTP, dGTP plus AA-dUTP
Source text: Samples contain dATP, dCTP, dGTP and either dUTP (first lane of each enzyme) or AA-dUTP (second lane each enzyme). Arrows indicate the extension products.

T7 polymerase exo- = target: T1, T7 polymerase exo- (Escherichia phage T7, UniProt P00581, D5A/E7A); assay: Steady-state kinetics, Km determination for dTTP; assay type: biochemical; settings: Lineweaver-Burk plot; 5 sec at 20° C.
T1 construct: made in house; host or cells: E. coli TOP 10

[1] = Capillary electrophoresis of unlabeled nucleotides with Mg++; assay type: physicochemical
Method: FIG. 14 illustrates the effect of Mg^++ on electrophoretic mobility of unlabeled nucleotides.
Electrophoresis Results. A γ-dNTP (FIG. 13A) with the charge configuration N(0) F(+2) was synthesized and its electrophoretic mobility examined in an agarose gel as a function of Mg^++ concentration (FIG. 13B). As expected (FIG. 12B), its mobility changed from negative to positive with increasing Mg^++, passing through zero at about 3 mM Mg^++. A direct comparison with the calculation (FIG. 12B) is not possible because, while the gels contained the indicated Mg^++ concentrations, the samples (20 μL) loaded in each lane contained 10 mM Mg^++. The importance of attaching a (+2) charge to the γ-label (FIG. 13A) with respect to obtaining a bipolar switch mode (neg to pos) is illustrated by a capillary electrophoresis experiment with unlabeled dTDP and dTTP (FIG. 14). […] It is clear that additional positive charge can be added to the these nucleotides if one desires a negative to positive charge switch. This is what was done with the γ-dNTP of FIG. 13.

[2] = Photodegradation and single molecule detection calculation; settings: 60 photons, 0.45% detection efficiency, 13,333 excitations
HIV-1 RT = HIV-1 RT (Human immunodeficiency virus type 1 group M subtype B, UniProt P03366); settings: 50 μM dATP, dCTP, dGTP; 37° C. for 30 min
Method: FIG. 6 illustrates the utilization of different γ-dNTPs by T7 Sequenase 2.0 and HIV polymerases. Samples contain 50 μM dATP, dCTP, dGTP and either (a) dUTP; (b) γ-dUTP-BodipyTR; (c) γ-dUTP-Fluorescein; or a control (d) omitting dUTP and its analogs. Incubation was at 37° C. for 30 min.
18 commercially-available polymerases were screened for the utilization of γ-dUTP-BodipyTR.

NC/C=C/c1cn([C@H]2C[C@H](O)[C@@H](COP(=O)(O)OP(=O)(O)OP(=O)(O)O)O2)c(=O)[nH]c1=O [Aminoallyl-dUTP]
extension product with AA-dUTP (HIV-RT): produced full-length product
extension product with AA-dUTP (Klenow): stopped at the dUTP incorporation sites
extension product with AA-dUTP (Taq): stopped at the dUTP incorporation sites
extension product with AA-dUTP (T7 Sequenase 2.0): produced full-length product

Cc1cn([C@H]2C[C@H](O)[C@@H](COP(=O)(O)OP(=O)(O)OP(=O)(O)O)O2)c(=O)[nH]c1=O [dTTP]
Km (T7 polymerase exo-): 13 µM
charge in presence of Mg++ [1]: remained in negative territory

CN(C)c1ccc2c(-c3ccccc3C(=O)[O-])c3ccc(N(C)C)cc3[o+]c2c1 [TMR, tetramethylrhodamine]
molecules escaping detection due to photodegradation [2]: 0.44%

Cc1cn([C@H]2C[C@H](O)[C@@H](COP(=O)(O)OP(=O)(O)O)O2)c(=O)[nH]c1=O [dTDP]
charge in presence of Mg++ [1]: remained in negative territory

O=c1ccn([C@H]2C[C@H](O)[C@@H](COP(=O)(O)OP(=O)(O)OP(=O)(O)O)O2)c(=O)[nH]1 [dUTP]
incorporation of γ-dUTP analogs / dUTP (FIG. 6) (HIV-1 RT): synthesized full-length product
